Where two headings read alike, the source gives them in different places. Values belong to the molecule of their own block, whether it stands above or below them.
Key:
[1] = Calcineurin inhibitor trough levels in transplant recipients; type: in vivo, human; conditions: mean [SD]
[2] = reference group of healthy subjects, abbreviated dosing schedule; cited from earlier work
[3] = type: in vivo, human
[4] = cited from earlier work
[5] = type: in vivo, human; remark: listed apart in the source
[6] = cited from earlier work; remark: listed apart in the source
[7] = with diltiazem; cited from earlier work
[8] = transplant recipients on tacrolimus, reference healthy subjects on apixaban + tacrolimus
[9] = transplant recipients on cyclosporine compared to healthy subjects on apixaban alone
[10] = transplant recipients on cyclosporine, reference healthy subjects on apixaban + cyclosporine

- mean trough level ([1]; after apixaban administration): 8.0 [2.7] ng/ml
- mean trough level ([1]; before apixaban administration (steady-state)): 7.4 (1.5) ng/ml
Compound: C=CC[C@@H]1/C=C(\C)C[C@H](C)C[C@H](OC)[C@H]2O[C@@](O)(C(=O)C(=O)N3CCCC[C@H]3C(=O)O[C@H](/C(C)=C/[C@@H]3CC[C@@H](O)[C@H](OC)C3)[C@H](C)[C@@H](O)CC1=O)[C@H](C)C[C@@H]2OC [tacrolimus]
- trough level [2]: 3.8 (2.3) ng/ml

- increase in plasma concentrations and total body exposures ([3]; SOTRs on calcineurin inhibitors compared to healthy subjects on apixaban alone): 2 to 3 fold
- AUC(0-inf) ([3]; human, plasma, oral, 10 mg): 5210 ng·h/mL
- Cmax ([3]; human, plasma, oral, 10 mg): 327 ng/mL
- Tmax ([3]; human, plasma, oral, 10 mg): 1.4 h
- AUC(0-inf) ([3]; human, plasma, po, 10 mg): 4310 ng·h/mL
- AUC(0-t) ([3]; human, plasma, po, 10 mg): 4240 ng·h/mL
- Cmax ([3]; human, plasma, po, 10 mg): 353 ng/mL
- peak level ([3]; one participant (kidney 1) on tacrolimus): > 500 ng/mL
- mean AUCs higher than the healthy participants ([3]; tacrolimus group, patients with optimal renal function): 1.8 fold
- Tmax ([3]; tacrolimus transplant cohort, comparison group to patients that weighed <60 kg): 2.6 h
- mean Cmax ([3]; tacrolimus transplant cohort, patients that weighed <60 kg): 483 ng/mL
- apixaban CL/F ([3]; tacrolimus transplant cohort, patients with creatinine levels of greater than 133 μmol/L): 1.9 L/h
- GMR for apixaban AUC0-inf ([3]; transplant recipients on tacrolimus compared to healthy subjects on apixaban alone): 224%
- GMR for apixaban AUC0-inf [3, 8]: 285%
- GMR for apixaban AUC0-tlast [3, 8]: 309%
- AUC(0-inf) ([5]; human, plasma, po, 10 mg): 5390 ng·h/mL
- AUC(0-t) ([5]; human, plasma, po, 10 mg): 4990 ng·h/mL
- GMR for apixaban AUC0-inf [5, 9]: 280%
- GMR for apixaban Cmax [5, 9]: 256%
- GMR for apixaban AUC0-inf [5, 10]: 229%
- GMR for apixaban Cmax [5, 10]: 179%
Compound: COc1ccc(-n2nc(C(N)=O)c3c2C(=O)N(c2ccc(N4CCCCC4=O)cc2)CC3)cc1 [apixaban]
- solubility classification [4]: high solubility
- apixaban dose removed by the kidneys [6]: 27%
- increase in apixaban AUC [7]: 1.4 fold
- increase in apixaban Cmax [7]: 1.3 fold

— paper PMC9283751 (Clinical and Translational Science, 2022)
